ED50 data for four molecules are collected here from patent US4064260A, “Anti-inflammatory diarylimidazothiazoles and their corresponding S-oxides” (E. I. Du Pont de Nemours and Company, priority 1976, dated 1977).

The test system of assay [1] is phenylquinone writhing in mice. Description: phenylquinone writhing test in mice (analgesic). It is filed as in vivo, Carworth CF-lS male mice. The conditions noted are these: po; mouse; intubated in 0.5% methylcellulose; phenylquinone 1.25 mg/kg i.p. 30 min later; observed 30-40 min after antagonist. As for the experimental part:
An equally reliable test that is used for testing analgesic activity of compounds is the phenylquinone writhing test in mice.
Writhing was caused in mice by the intraperitoneal injection of phenyl-p-benzoquinone (Siegmund, E., Cadmus, R., Lu, G., Proc. Soc. Exp. Biol, and Med., 95, 729, 1957).
Groups of 10 or more Carworth CF-lS male mice, 18-21 g each, were fasted 17-21 hours and were intubated with the writhing antagonist at several dose levels in 0.5% methylcellulose. 30 Minutes later the mice were challenged with phenylquinone (1.25 mg./kg., i.p., dissolved in ethanol and diluted to 5% ethanol with distilled water at 40° C.). […] ED50' s were obtained by the Litchfield and Wilcoxon Method (Litchfield, J. T. and Wilcoxon, F., J.P.E.T., 96, 99 1949) and the Weil moving average method (Weil, C., Biometrics, 8 ,249 1952). Peak time studies were also done with some of these compounds and their peak time ED50' s were recorded.
For orientation: Writhing tests count abdominal constrictions after an irritant is injected.

The test system of assay [2] is Adjuvant-Induced Arthritis in Rats. The assay can be described thus: Established Adjuvant-Induced Arthritis in Rats (paw volume). It is filed as in vivo, Charles River Lewis male rats. The conditions noted are these: 24 h; rat; oral; dosed that day and 6 following days; ED50% decrease from control paw volume (uninjected left hind paw), one day after last dose. The method, then:
A standard procedure for detecting and comparing the anti-inflammatory activity of compounds in this series for which there is good correlation with human efficacy is the adjuvant-induced arthritis test in rats.
Established Adjuvant-Induced Arthritis in Rats
Charles River Lewis male rats (130-150 grams) are injected subcutaneously in the plantar area of the right hind paw with 0.1 ml of adjuvant (Difco heat-killed, lyophilized Myobacterium butyricum suspended in mineral oil 5 mg./ml.). 20 Non-arthritic controls are injected with mineral oil. The animals are held for 2 weeks to allow development of arthritis. Paw volumes (uninjected, left hand paw) are measured and the adjuvant injected rats are culled and distributed to treatment groups of 10 of equal disease severity. Non-arthritic controls are distributed to 2 groups of 10. The rats are given oral doses of compound or PVA-Acacia (10 ml./kg.) on that day and on the 6 following days. One day after the last dose the paw volumes (uninjected, left hind paw) are measured using a Ugo Basile Volume Differential Meter Model 7101. [formula]
Dose-response regression lines of the % decrease are plotted on semi-log paper by visual fit and the ED50% decrease from control paw volume is determined by inspection.

Each structure is given as a SMILES string. Some results are limits rather than exact numbers.

As to `COc1ccc(-c2nc3n(c2-c2ccc(OC)cc2)CCS3(=O)=O)cc1` [2 H H H H, 2,3-Dihydro-5,6-bis(p-methoxyphenyl)imidazo[2,1-b]thiazole S,S-dioxide], the ED50 (commonly the dose that gives a 50% effect, or the effect in half of the subjects) was > 130 mg/kg in assay [1] and 8 mg/kg in assay [2].

On to `COc1ccc(-c2nc3n(c2-c2ccc(OC)cc2)CCS3)cc1` [0 H H H H, 2,3-Dihydro-5,6-bis(p-methoxyphenyl)imidazo[2,1-b]thiazole], for which the ED50 turned out to be 64 mg/kg in assay [1] and 5.5 mg/kg in assay [2].

As to `COc1ccc(-c2nc3n(c2-c2ccc(OC)cc2)CC[S+]3[O-])cc1` (stereo not shown) [1 H H H H, 2,3-Dihydro-5,6-bis(p-methoxyphenyl)imidazo[2,1-b]thiazole S-oxide], the median effective dose (ED50) is 8.7 mg/kg in assay [1] and 7.4 mg/kg in assay [2].

For the molecule `COc1ccc(-c2nc3n(c2-c2ccc(OC)cc2)C(F)C(F)(F)S3)cc1` (stereo not shown) [0 F F H F, 2,3-Dihydro-2,2,3-trifluoro-5,6-bis(p-methoxyphenyl)imidazo-[2,1-b]thiazole], the ED50 in assay [2] turned out to be 11 mg/kg.
